From patent US7354911B2, “1,3-benzodioxol compound and use of same” (Sumitomo Chemical Company, Limited, priority 2006, dated 2008)

System: Musca domestica
Experiment: Topical application of acetone solution to female adult Musca domestica, mortality after 24 hours
Assay type: in vivo
Conditions: 0.5 μL acetone solution on back of chest region, 25° C.
Procedure: After mixing the present compounds (1), (2), (3), (4), (5), and (6) with d-allethrin respectively, acetone solutions containing each mixture with the respective prescribed concentrations (w/v) listed in Table 2 were prepared. An adult Musca domestica was applied with 0.5 μL of the acetone solution dropped on the back side of its chest region, transferred to a plastic cup having about 9 cm diameter and about 4.5 cm height, and then left at 25° C. with being fed by 5% of aqueous sugar solution. […] The number of the Musca domesticas contained in each cup was 10, and the test was repeated twice.
Furthermore, after preparing acetone solutions containing each of the present compounds (1), (2), (3), (4), (5), and (6) and d-allethrin in the respective prescribed concentrations (w/v) listed in Table 2, a test was conducted as the same manner mentioned above.
For comparison, with using 4,5-methylenedioxy-2-propylphenyl2-butoxyethyl ether (hereinafter, referred to as a comparative compound)
[drawing 16] in place of the present compounds, a test was conducted in the same manner.

[1] = test compound 1.25 % (w/v) alone, d-allethrin 0 % (w/v)
[2] = test compound 1.25 % (w/v) mixed with d-allethrin 0.25 % (w/v)

For `C=CCc1cc2c(cc1OCCOCC)OCO2` [The present compound (3), 5-(2-ethoxyethoxy)-6-(2-propenyl)-1,3-benzodioxol], the mortality ratio [1] was 0% and the mortality ratio [2] was 100%.

In the case of `C=CCC1=C(C)C(OC(=O)C2C(C=C(C)C)C2(C)C)CC1=O` (stereo not drawn) [d-allethrin, reference compound], the mortality ratio (d-allethrin 0.25 % (w/v) alone, no test compound) is reported as 0%.

`CCCCOCCOc1cc2c(cc1CCC)OCO2` [Comparative compound, 4,5-methylenedioxy-2-propylphenyl2-butoxyethyl ether, reference compound] showed a mortality ratio [1] of 0% and a mortality ratio [2] of 55%.

Molecule `C=CCc1cc2c(cc1OCCOC)OCO2` [The present compound (1), 5-(2-methoxyethoxy)-6-(2-propenyl)-1,3-benzodioxol] has a mortality ratio [1] of 0% and a mortality ratio [2] of 100%.

For `CCCc1cc2c(cc1OCCOC)OCO2` [The present compound (2), 5-(2-methoxyethoxy)-6-propyl-1,3-benzodioxol], the mortality ratio [1] was 0% and the mortality ratio [2] was 90%.

Molecule `CCCOCCOc1cc2c(cc1CCC)OCO2` [The present compound (6), 5-{(2-propyloxy)ethoxy}-6-propyl-1,3-benzodioxol] has a mortality ratio [1] of 0% and a mortality ratio [2] of 80%.

Work on `CCCc1cc2c(cc1OCCOCC)OCO2` [The present compound (4), 5-(2-ethoxyethoxy)-6-propyl-1,3-benzodioxol] yielded a mortality ratio [1] of 0% and a mortality ratio [2] of 100%.

`C=CCc1cc2c(cc1OCCOCCC)OCO2` [The present compound (5), 5-{2-(propyloxy)ethoxy}-6-(2-propenyl)-1,3-benzodioxol] was tested, and the mortality ratio [1] was 0% and the mortality ratio [2] was 90%.
